Source: ChEMBL document CHEMBL1201862, “PubChem BioAssay data set” (2004)
The source made the active and inactive calls.

How the values were obtained:
[1] = Luminescence Cell-Based Dose Response HTS to Identify Activators of Luciferase Translation or Activity in H4 […] Cells. [Related pubchem assays: 1829 (Project Summary), 1814 (Primary HTS)]; type: functional
[2] = Luminescence Cell-Based Dose Retest to Confirm Inhibitors of Cancer Stem Cells. [Related pubchem assays (depositor defined):AID2717, AID2721]; type: functional; details: Homo sapiens
H4 = assay: Luminescence Cell-Based Dose Response HTS to Identify Activators of 5'UTR Stem-Loop Driven Prion Protein mRNA Translation in H4 Neuroglioblastoma Cells. [Related pubchem assays: 1829 (Project Summary), 1814 (Primary HTS)]; type: functional; details: Homo sapiens
[3] = viability of uninfected HEp-2 cells – cell-based, HTS, cytotoxicity control for RSV inhibitor project, dose response (AID 2410); type: functional; details: human respiratory syncytial virus
[4] = target: T1, Corticotropin-releasing factor receptor 2/Corticotropin-releasing factor-binding protein (Homo sapiens, UniProt P24387+Q13324); assay: activators of CRF receptor 2 with binding protein – uHTS hits, confirmation (AID 602473); type: functional; details: read-out: EC50_Mean
T1 sequence (Q13324 whole entry): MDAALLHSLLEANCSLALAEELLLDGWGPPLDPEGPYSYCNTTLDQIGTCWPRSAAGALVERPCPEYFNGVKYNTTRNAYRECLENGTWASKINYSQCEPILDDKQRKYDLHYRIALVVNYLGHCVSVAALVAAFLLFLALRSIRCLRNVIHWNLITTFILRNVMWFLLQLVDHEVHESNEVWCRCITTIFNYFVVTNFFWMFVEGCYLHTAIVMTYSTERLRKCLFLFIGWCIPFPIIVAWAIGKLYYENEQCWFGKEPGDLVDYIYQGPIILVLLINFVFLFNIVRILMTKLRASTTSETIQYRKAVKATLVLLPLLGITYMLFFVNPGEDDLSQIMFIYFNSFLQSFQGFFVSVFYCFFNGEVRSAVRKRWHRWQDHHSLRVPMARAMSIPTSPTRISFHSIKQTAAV
T1 sequence (P24387 whole entry): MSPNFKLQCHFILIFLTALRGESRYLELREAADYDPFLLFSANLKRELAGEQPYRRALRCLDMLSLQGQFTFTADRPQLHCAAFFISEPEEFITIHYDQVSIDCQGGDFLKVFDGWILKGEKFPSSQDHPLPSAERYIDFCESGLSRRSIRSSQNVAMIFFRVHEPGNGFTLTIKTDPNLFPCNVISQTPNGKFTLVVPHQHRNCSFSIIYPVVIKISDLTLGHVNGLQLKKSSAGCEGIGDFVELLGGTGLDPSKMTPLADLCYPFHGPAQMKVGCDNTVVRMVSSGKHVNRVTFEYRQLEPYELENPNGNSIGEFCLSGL

[5] = microbe, parasite or virus in culture; type: functional; details: Mycobacterium tuberculosis
[6] = target: T2, RNA-binding protein pos-1 (Caenorhabditis elegans, UniProt G5EF15); assay: disruptors of C. elegans POS-1 RNA interaction – biochemical, fluorescence polarization, dose response (AID 1964);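 note: purified POS-1 fused to maltose binding protein made in E. coli; potency of compounds blocking POS-1 binding to fluorescent RNA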
T2 sequence (G5EF15 whole entry): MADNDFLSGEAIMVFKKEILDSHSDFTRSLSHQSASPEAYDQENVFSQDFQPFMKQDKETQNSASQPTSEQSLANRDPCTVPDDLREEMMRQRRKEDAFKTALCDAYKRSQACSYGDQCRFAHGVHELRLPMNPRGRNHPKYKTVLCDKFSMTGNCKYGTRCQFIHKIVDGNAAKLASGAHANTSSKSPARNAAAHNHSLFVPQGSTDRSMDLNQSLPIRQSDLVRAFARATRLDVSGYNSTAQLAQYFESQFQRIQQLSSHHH

[7] = Trypanosoma cruzi growth suppression in host cells – NIH3T3 host cells, beta-gal luminescence, confirmation (AID 2044); type: functional, cell-based;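 note: intracellular parasites grown in NIH/3T3 mouse fibroblasts as host cells; luminescent beta-galactosidase reporter signal from transgenic T. cruzi replicating inside host cells; inhibitors lower the luminescence signal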
[8] = NIH3T3 cell viability loss – ATP luminescence, mouse fibroblasts, counter-screen, dose response (AID 2010); type: functional, cell-based;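 note: cells exposed to compound for about 90 hours before reading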
[9] = target: T3, Zinc finger protein mex-5 (Caenorhabditis elegans, UniProt Q9XUB2); assay: potency of MEX-5 RNA-binding blockers – biochemical, C. elegans, fluorescence polarization, dose response (AID 1960)
T3 sequence (Q9XUB2 whole entry): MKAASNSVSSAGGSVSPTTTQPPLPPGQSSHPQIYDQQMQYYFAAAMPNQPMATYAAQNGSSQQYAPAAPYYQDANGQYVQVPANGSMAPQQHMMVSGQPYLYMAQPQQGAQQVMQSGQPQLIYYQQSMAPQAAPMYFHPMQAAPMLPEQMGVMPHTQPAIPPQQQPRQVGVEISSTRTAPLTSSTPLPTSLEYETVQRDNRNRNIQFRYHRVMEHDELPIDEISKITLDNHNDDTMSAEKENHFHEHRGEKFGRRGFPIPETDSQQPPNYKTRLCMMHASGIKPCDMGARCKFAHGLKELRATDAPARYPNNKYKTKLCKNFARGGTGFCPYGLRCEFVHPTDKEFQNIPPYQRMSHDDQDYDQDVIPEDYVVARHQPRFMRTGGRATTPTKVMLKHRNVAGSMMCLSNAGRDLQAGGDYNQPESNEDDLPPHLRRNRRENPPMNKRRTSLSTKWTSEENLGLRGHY

Protein RecA = target: T4, Protein RecA (Mycobacterium tuberculosis, UniProt P9WHJ3); assay: Fluorescence Cell-Free Homogeneous Dose Retest to Identify Inhibitors of RecA-Intein Splicing Activity. [Related pubchem assays (depositor defined):AID2097, AID2223, AID489010, AID492950]; type: functional
T4 sequence (P9WHJ3 whole entry): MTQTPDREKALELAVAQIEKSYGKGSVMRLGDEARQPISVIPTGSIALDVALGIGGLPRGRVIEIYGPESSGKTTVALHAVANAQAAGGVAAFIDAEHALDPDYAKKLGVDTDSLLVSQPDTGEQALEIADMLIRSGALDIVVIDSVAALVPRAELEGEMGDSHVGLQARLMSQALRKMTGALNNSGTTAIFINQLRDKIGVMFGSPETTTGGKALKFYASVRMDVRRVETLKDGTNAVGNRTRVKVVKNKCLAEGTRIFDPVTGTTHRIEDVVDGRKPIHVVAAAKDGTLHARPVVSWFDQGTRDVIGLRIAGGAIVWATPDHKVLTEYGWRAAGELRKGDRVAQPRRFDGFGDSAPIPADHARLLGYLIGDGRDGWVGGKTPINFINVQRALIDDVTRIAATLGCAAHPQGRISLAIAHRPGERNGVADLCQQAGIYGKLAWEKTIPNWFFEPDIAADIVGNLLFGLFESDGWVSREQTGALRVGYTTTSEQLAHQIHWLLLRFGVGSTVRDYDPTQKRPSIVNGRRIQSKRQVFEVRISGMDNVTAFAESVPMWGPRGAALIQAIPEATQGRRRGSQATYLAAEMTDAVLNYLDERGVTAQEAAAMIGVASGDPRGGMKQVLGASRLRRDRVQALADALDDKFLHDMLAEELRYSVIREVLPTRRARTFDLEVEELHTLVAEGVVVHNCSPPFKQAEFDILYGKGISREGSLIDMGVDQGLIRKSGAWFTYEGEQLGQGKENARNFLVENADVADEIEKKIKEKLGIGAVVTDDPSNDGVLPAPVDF

[10] = target: T5, Replicative DNA helicase DnaB (Mycobacterium tuberculosis, UniProt P9WMR3); assay: DnaB intein splicing inhibitors, dose response, biochemical, cell-free fluorescence (AID 449749); type: functional
T5 sequence (P9WMR3 whole entry): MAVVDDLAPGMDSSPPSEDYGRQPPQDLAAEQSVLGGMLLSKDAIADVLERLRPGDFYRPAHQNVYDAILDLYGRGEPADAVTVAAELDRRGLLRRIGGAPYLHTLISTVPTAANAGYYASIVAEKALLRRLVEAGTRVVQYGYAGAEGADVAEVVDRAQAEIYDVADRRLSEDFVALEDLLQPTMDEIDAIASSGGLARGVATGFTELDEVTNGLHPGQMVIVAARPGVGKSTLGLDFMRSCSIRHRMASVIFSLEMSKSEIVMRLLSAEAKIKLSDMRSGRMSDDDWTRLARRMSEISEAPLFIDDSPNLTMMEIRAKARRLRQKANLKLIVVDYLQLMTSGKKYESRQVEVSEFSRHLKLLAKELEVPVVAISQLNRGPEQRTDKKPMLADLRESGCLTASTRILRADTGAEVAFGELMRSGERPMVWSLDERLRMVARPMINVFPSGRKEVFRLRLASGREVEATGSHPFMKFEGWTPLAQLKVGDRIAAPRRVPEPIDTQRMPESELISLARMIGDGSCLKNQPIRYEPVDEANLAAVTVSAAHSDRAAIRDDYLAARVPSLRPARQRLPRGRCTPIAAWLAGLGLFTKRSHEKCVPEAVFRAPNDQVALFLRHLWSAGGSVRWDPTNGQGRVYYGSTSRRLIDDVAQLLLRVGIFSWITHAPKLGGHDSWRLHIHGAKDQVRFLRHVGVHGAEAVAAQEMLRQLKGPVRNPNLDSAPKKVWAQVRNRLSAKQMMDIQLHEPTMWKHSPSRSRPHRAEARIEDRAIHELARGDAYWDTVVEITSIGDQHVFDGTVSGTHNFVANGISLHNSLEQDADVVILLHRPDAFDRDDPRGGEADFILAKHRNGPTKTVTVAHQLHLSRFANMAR

## C/C(NC(=O)c1cccc(F)c1)=C1/C(=O)C[C@@H]2[C@H]1C2(C)C
[1]
  EC50: 29.7 µM (active)
[2]
  AC50: 1.24 µM (active)
H4
  EC50: 17.8 µM (active)

## Cc1ccc(NC(=O)CN(C)CC(=O)Nc2sc3c(c2C(N)=O)CCC3)cc1
[3]
  CC50: 28.1 µM (active)

## O=C(Nc1ccc(N2CCOCC2)cc1)c1cc2c(s1)CCCCC2
[3]
  CC50: 23.8 µM (active)

## COc1ccc(CN2C[C@H](Cc3ccccc3)[C@@H](CC(=O)Nc3ccccc3)C2=O)cc1
[3]
  CC50: 22 µM (active)

## CCOC(=O)c1cnc(SCc2cccc(C)c2)nc1N
[3]
  CC50: 43.8 µM (active)

## CCCN1CCc2c(sc(NC(=O)c3ccc(S(=O)(=O)N4CCCC4)cc3)c2C(N)=O)C1
[4]
  EC50: 3.22 µM (active)

## CCCn1c(N2CCN(Cc3ccc(Cl)cc3)CC2)nc2ccccc21
[5]
  CC50: > 40 µM (active)

## NC(=O)c1cc(-c2csc(-c3cccnc3)n2)ccc1O
[3]
  CC50: 22.7 µM (active)

## Cc1cc[n+](C2=C([N-]S(=O)(=O)c3cccs3)C(=O)c3ccccc3C2=O)cc1C
[6]
  EC50: > 300 µM (not active)
[7]
  EC50: > 60 µM (not active)
[8]
  EC50: > 30 µM (not active)
[9]
  EC50: > 300 µM (not active)
Protein RecA
  EC50: 3.8 µM (active)
[10]
  AC50: 3.69 µM (active)

## Cc1nn(CCc2nn[nH]n2)c2nc(-c3ccc(Br)cc3)cc(C(F)(F)F)c12
[5]
  CC50: > 40 µM (active)

## CCOC(=O)N1CCN(c2nc(N(c3ccccc3)c3ccccc3)nc(-n3ccnc3)n2)CC1
[5]
  CC50: > 40 µM (active)
